In US10035814B2, “Guanine analogs as telomerase substrates and telomere length affectors” (Geron Corporation, priority 2011, dated 2018):
Where “and” joins values, the source holds several entries; their conditions need not be identical. Equal entries are not always repeated.

Key:
[1] = target: telomerase in HT3 cells (Homo sapiens (Human), UniProt O14746); assay: Ex vivo TRAP assay in HT3 cells; format: cell-based; conditions: for EC50: Table 8, assay not given, repeat determinations, values coincide with Ex Vivo TRAP, read-out: EC50
Procedure: HT3 cells were treated for three days with increasing concentrations of PMPG-diisopropyloxy ester ranging from 0.2 μM to 20 μM. Cells (HT3 RPMI+10% PBS) were incubated with compound for 24 hr after which PSTS primer (phosphorothioate-d(AATCCGTCGAGCAGAGTT (SEQ ID NO: 6) containing a 5′ Cy-5 label) (7.5 μM) and fresh compound are added for an additional 24 hr. Cells were lysed and endogenous telomerase inactivated by heating (15 min, 75° C.). Products were amplified by 30 cycles of PCR under TRAP conditions set forth above and quantified. The results of two independent experiments are shown in Table 4.
HT3 cells were treated for three days with increasing concentrations of one or more of the indicated compounds ranging from 0.2 μM to 20 μM. Cells (HT3 RPMI+10% FBS) were incubated with compound for 24 hours, after which PSTS primer (phosphorothioate-d AATCCGTCGAGCAGAGTT (SEQ ID NO: 6) containing a 5′ Cy-5 label) (7.5 μM) and fresh compound were added for an additional 24 hours. Cells were lysed and endogenous telomerase inactivated by heating (15 minutes, 75° C.). Products were amplified by 30 cycles of PCR under TRAP conditions set forth in Kim et al., Science 266:2011, […] (which reference is incorporated herein in its entirety) and quantified.

[2] = system: A549 cells; assay: Telomere repeat fragment (TRF) assay using A549 cells; format: cell-based; conditions: approximately 70 population doublings
Procedure: (§1) Approximately 1-2 μg of genomic DNA from each cell line or tissue was digested by Hinf/RsaI for 2 hours at 37° C. Following DNA digestion, the genomic DNA fragments were separated on a 0.8% agarose gel and transferred to a nylon membrane by blotting. All membrane hybridization and detection reagents were provided in the TeloTAGGG Telomere Length Assay kit (Roche Diagnostics, Mannheim Germany). The blotted membranes were hybridized with digoxigenin (DIG)-labeled PNA probe specific for telomeric repeats, followed by incubation with anti-DIG-antibody-alkaline phosphatase according to the manufacturer's instructions. Alkaline phosphatase was quantified using the chemiluminescent substrate. Telomere lengths were calculated according to the manufacturer's instruction.
Lane 1 is a ladder from 21.2 kb to 1.9 kb. Lanes 2 and 3 have 10 μM and 5 μM, respectively, of PMPG free acid (ID#142693). Lanes 4 to 6 have 10 μM, 5 μM, and 2.5 μM, respectively, of PMPG prodrug (ID#142715). Lane 7 has 2 μM of Imetelstat (163 L). Lane 8 has 2 μM of a mismatch. Lanes 9 and 10 have 20 μM and 10 μM, respectively, of PMIBeG free acid [(((2-((2-amino-6-oxo-1H-purin-9(6H)-yl)methyl)allyl)oxy)methyl)phosphonic acid] (ID#142811). Indicated amounts each compound were added to A549 cells. After approximately 70 population doublings, the cells were harvested and telomere lengths determined using TRF. The estimated average telomere lengths were: (1) MM/mismatch control: 7 kb; (2) Imetelstat/163 L: 4.3 kb; (3) PMPG prodrug (10 μM and 5 μM): 4 kb; (4) PMPG free acid (5 μM and 10 μM): 4 kb; (5) PMIBeG prodrug (50 μM): 4.3 kb; (6) PMIBeG free acid (20 μM): 5 kb.

[3] = system: Caki-1 cells; assay: Caki-1 tumor growth in SCID hairless outbred (SHO) mice; format: in vivo; conditions: for tumor growth compared to vehicle control: 30 mg/kg intraperitoneal; for Intercept coefficient of linear transformed tumor growth curve / Slope coefficient of linear transformed tumor growth curve: linear mixed effects model, change versus vehicle
Procedure: Low-passage Caki-1 cells were injected subcutaneously into the flank of SCID hairless outbred (SHO) mice receiving 30 mg/kg of one of the following via intraperitoneal injection: vehicle (PBS with 0.4% Tween 20), Imetelstat (163 L), PMPG free acid (ID#142693), or PMPG prodrug (ID#142715). Calipers were used to measure tumor length and width bi-weekly, and tumor volume was calculated. Once a tumor had grown >50 mm^3, the animal was randomly entered into a study group, either control or treatment. Animals received 30 mg/kg compound via intraperitoneal injection for the duration of the study. The control vehicle was PBS with 0.4% Tween 20. Tumor volume was measured bi-weekly, and animals were sacrificed either when tumor size was >2000 mm^3 or at defined study completion date.
At the conclusion of the study, a linear transformation of the tumor growth curves was performed. The slope of the growth curves for each treatment group was derived by using a linear mixed effects model. The Y-intercept was used to confirm random tumor starting size at the time of animals entering into the study.

[4] = Cytotoxicity in cell culture (cells not named); format: cell-based
[5] = target: telomerase (Homo sapiens (Human), UniProt O14746); assay: Primer extension assay for telomerase activity; format: biochemical; conditions: prodrug itself, cell free
Procedure: Purified human telomerase was incubated with d(TTAGGG)3 (SEQ ID NO: 1) and deoxy-nucleoside triphosphates for 90 minutes at 37° C. All reactions were done in the presence of 200 dTTP and 10 μM dATP (50,000 cpm/pmol a-^33P-dATP). Activity was determined by incubating affinity purified telomerase extract with 1 μM primer [d(TTAGGG)3] (SEQ ID NO: 1), 200 μM dTTP, 50 μM dGTP, 10 μM dATP, 10 μCi [α-^33P]dATP (2000-4000 Ci/mmol) in a buffer containing 50 mM (N-2-hydroxyethyl piperazine-N′-3 propanesulfonic acid)-NaOH pH 8.5, 1 mM MgCl2, 1 mM DTT, 5% glycerol, 0.5 mM EGTA and 100 mM KOAc in a final reaction volume of 40 μl. Primer extension products were analyzed on a 15% polyacrylamide gel containing 7 M urea. A characteristic telomerase ladder has multiple bands. If a compound is not a substrate then (TTAGGG)3TTA (21 nt) (SEQ ID NO: 2). If a compound is a chain terminator then (TTAGGG)3TTAG* (22 nt) (SEQ ID NO: 3).
Purified human telomerase was incubated with d(TTAGGG)3 (SEQ ID NO: 1) and deoxy-nucleoside triphosphates for 90 minutes at 37° C. All reactions were done in the presence of 200 dTTP and 10 μM dATP (50,000 cpm/pmol a-^33P-dATP). Activity was determined by incubating affinity purified telomerase extract with […] primer [d(TTAGGG)3] (SEQ ID NO: 1), […] [α-^33P]dATP (2000-4000 Ci/mmol) in a buffer containing 50 mM (N-2-hydroxyethyl piperazine-N′-3 propanesulfonic acid)-NaOH pH 8.5, 1 mM MgCl2, 1 mM DTT, 5% glycerol, 0.5 mM EGTA and 100 mM KOAc in a final reaction volume of 40 μl. Primer extension products were analyzed on a 15% polyacrylamide gel containing 7 M urea. A characteristic telomerase ladder has multiple bands. If a compound is not a substrate then (TTAGGG)3TTA (21 nt) (SEQ ID NO: 2). If a compound is a chain terminator then (TTAGGG)3TTAG* (22 nt) (SEQ ID NO: 3).

[6] = system: immortal U87 cells; assay: Telomere repeat fragment (TRF) assay using immortal U87 cells; format: cell-based; conditions: concentration not given at the value, approximately 20 population doublings
Procedure: as §1
Telomere repeat fragment assays using immortal U87 cells were performed. 10 μM or 20 μM PMIBeG prodrug (ID#142820) or PMPG prodrug (ID#142715) were added to the cells. Imetelstat (163 L) was used as a reference and a mismatch was used as a negative control. After approximately 20 population doublings, the cells were harvested and telomere lengths determined using TRF. The estimated average lengths were: (1) mismatch control: 5 kb; (2) Imetelstat (163 L): 3.5 kb; (3) PMIBeG prodrug (ID#142820) at 20 μM: 4 kb; (4) PMIBeG prodrug (ID#142820) at 10 μM: 4.1 kb; (5) PMPG prodrug (ID#142715): 3.5 kb.

[7] = system: RPE-64-tv cells; assay: Cytotoxicity in RPE-64-tv cells; format: cell-based
[8] = Day 10, 30 mg/kg intraperitoneal
[9] = Day 20, 30 mg/kg intraperitoneal
[10] = Day 30, 30 mg/kg intraperitoneal
[11] = Day 40, 30 mg/kg intraperitoneal
[12] = Day 50, 30 mg/kg intraperitoneal
[13] = Day 60, 30 mg/kg intraperitoneal

Sequence of telomerase in HT3 cells (O14746 whole entry): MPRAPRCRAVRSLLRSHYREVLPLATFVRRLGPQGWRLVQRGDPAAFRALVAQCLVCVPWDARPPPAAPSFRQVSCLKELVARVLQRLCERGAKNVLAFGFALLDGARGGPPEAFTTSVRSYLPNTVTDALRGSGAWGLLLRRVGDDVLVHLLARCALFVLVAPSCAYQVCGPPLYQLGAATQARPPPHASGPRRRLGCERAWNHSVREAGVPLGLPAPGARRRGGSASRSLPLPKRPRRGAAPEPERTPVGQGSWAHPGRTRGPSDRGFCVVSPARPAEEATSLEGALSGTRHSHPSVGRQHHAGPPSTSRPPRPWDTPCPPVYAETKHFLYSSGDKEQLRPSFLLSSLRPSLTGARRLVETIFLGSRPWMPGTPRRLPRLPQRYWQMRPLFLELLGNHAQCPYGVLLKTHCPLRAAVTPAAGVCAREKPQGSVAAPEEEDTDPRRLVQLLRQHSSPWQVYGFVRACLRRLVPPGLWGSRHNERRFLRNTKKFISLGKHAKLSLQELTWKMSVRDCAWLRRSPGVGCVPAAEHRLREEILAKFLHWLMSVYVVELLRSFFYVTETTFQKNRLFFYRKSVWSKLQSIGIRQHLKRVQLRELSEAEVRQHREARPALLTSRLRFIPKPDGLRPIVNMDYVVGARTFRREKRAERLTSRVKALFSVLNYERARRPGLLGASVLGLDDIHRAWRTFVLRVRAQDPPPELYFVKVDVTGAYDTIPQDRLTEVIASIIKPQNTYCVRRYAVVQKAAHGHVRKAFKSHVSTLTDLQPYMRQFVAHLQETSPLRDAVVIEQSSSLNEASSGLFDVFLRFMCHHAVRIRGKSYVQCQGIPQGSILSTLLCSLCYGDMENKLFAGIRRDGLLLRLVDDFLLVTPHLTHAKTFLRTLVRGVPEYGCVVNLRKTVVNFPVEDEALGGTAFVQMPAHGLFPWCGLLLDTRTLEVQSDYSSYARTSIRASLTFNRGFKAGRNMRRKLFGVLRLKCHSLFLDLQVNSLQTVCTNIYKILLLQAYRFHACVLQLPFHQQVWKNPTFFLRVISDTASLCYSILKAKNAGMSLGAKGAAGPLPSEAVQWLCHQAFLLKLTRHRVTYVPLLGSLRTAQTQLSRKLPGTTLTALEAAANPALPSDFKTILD
Sequence of telomerase in HT3 cells (O60832 whole entry partner): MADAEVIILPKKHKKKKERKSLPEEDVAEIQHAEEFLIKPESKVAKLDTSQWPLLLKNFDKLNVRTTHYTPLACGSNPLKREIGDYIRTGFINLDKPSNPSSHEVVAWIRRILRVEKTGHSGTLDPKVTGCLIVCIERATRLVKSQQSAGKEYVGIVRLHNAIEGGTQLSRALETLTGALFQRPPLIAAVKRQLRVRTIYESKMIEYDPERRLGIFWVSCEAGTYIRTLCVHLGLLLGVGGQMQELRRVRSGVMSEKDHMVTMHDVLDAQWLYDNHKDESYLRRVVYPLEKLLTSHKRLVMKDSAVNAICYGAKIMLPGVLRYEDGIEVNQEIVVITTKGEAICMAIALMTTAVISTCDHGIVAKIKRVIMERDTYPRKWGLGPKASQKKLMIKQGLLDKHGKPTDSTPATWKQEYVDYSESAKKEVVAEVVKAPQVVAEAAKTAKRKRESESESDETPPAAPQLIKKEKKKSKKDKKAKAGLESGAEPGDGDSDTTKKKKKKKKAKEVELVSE
Sequence of telomerase in HT3 cells (Q9NX24 whole entry partner): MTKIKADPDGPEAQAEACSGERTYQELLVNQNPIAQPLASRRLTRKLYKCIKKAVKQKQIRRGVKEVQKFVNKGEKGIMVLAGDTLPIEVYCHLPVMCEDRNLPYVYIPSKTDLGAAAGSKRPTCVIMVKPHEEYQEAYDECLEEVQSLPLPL
Sequence of telomerase in HT3 cells (Q9NPE3 whole entry partner): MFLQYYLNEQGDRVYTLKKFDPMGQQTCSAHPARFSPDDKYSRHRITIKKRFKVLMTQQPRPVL
Sequence of telomerase in HT3 cells (Q9NY12 whole entry partner): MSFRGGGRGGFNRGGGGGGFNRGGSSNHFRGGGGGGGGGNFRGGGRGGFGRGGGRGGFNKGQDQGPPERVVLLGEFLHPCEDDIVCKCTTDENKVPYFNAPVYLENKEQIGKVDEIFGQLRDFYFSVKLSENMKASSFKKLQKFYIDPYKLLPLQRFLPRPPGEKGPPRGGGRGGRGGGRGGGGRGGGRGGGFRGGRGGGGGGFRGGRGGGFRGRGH
Sequence of telomerase in HT3 cells (Q9BUR4 whole entry partner): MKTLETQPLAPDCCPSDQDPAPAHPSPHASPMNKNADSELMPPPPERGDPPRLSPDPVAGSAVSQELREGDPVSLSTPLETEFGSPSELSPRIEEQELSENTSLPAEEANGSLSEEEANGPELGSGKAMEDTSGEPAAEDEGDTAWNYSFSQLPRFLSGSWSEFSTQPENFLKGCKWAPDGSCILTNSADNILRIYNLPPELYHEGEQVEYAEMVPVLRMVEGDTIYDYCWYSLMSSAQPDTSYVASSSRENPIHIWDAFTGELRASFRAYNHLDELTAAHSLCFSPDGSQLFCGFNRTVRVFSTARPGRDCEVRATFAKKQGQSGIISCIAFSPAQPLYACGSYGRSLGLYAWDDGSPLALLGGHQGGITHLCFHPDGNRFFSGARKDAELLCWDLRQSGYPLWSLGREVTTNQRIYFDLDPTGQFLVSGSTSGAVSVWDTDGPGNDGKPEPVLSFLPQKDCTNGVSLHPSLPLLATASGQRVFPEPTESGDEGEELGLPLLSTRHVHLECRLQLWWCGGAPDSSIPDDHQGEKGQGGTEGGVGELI
Sequence of telomerase (O14746 whole entry): as the sequence (O14746 whole entry) above

Molecule	EC50 [1]	estimated average telomere length ([2]; 10 μM and 5 μM) [kb]	tumor growth compared to vehicle control [3]	tumor volume [3, 8] [mm^3]	tumor volume as a percentage of the tumor volume of control vehicle mice [3, 8] [%]	tumor volume [3, 9] [mm^3]	tumor volume as a percentage of the tumor volume of control vehicle mice [3, 9] [%]	tumor volume [3, 10] [mm^3]	tumor volume as a percentage of the tumor volume of control vehicle mice [3, 10] [%]	tumor volume [3, 11] [mm^3]	tumor volume as a percentage of the tumor volume of control vehicle mice [3, 11] [%]	tumor volume [3, 12] [mm^3]	tumor volume as a percentage of the tumor volume of control vehicle mice [3, 12] [%]	tumor volume [3, 13] [mm^3]	tumor volume as a percentage of the tumor volume of control vehicle mice [3, 13] [%]	Intercept coefficient of linear transformed tumor growth curve [3]	Slope coefficient of linear transformed tumor growth curve [3]	estimated average telomere length [6] [kb]	further results
CC(Cn1cnc2c(=O)[nH]c(N)nc21)OCP(=O)(O)O (single isomer, unassigned) [ID#142693, R-(((Guanine-9-yl)propan-2-oxy)methyl) phosphonic acid]	11700 nM and 2500 nM and 1500 nM	4	reduction in tumor growth	165.1	91	330.8	83	581.3	78	934.3	75	1407.2	73	2017.6	71	0.096	−0.027	–	cytotoxicity ([4]; 200 uM): acutely cytotoxic; cytotoxicity ([4]; therapeutic doses (10 μM and 20 μM)): minimal cytotoxicity
CC(C)OC(=O)OCOP(=O)(COC(C)Cn1cnc2c(=O)[nH]c(N)nc21)OCOC(=O)OC(C)C (single isomer, unassigned) [ID#142715]	1100 nM and 1200 nM and 3100 nM and 810 nM	4	–	170.7	94	377.5	95	706.6	95	1186.6	95	1845.9	95	2713.0	96	−0.093	−0.001	3.5	IC50 ([1]; HT3 cells, 0.2 μM to 20 μM, two independent experiments, read-out: Ex vivo Assay IC 50): 1000 to 3000 nM and 1200 to 3200 nM; activity in the cell free telomerase assay [5]: inactive
C=C(COCP(=O)(O)O)Cn1cnc2c(=O)[nH]c(N)nc21 [ID#142811, (((2-((2-amino-6-oxo-1H-purin-9(6H)-yl)methyl)allyl)oxy)methyl)phosphonic acid]	–	–	–	–	–	–	–	–	–	–	–	–	–	–	–	–	–	–	estimated average telomere length ([2]; 20 μM): 5 kb; cytotoxicity compared with PMPG [7]: less cytotoxic than PMPG; effect on tissue culture ([7]; 200 μM): no effect on tissue culture
Imetelstat [reference compound]	–	–	reduction in tumor growth	146.0	81	293.5	74	517.0	70	832.2	67	1254.8	65	1800.7	63	−0.074	−0.032	3.5	estimated average telomere length ([2]; 2 μM): 4.3 kb
